Patent publication US20250296910A1, “BENZAMIDE ENAMINONE DERIVATIVES AND METHODS OF USE THEREOF” (University of Maryland, Eastern Shore, priority 2022, published 2025)

Columns and labels:
6 Hz 44 mA animal model = test: 6 Hz 44 mA psychomotor seizure test (ETSP anticonvulsant screening); assay type: in vivo, Carworth Farms no. 1 (CF1) mice; conditions: 300 mg/kg, ip, mice
Procedure: (§1) Initial evaluation for anticonvulsant activity was done by the Epilepsy Therapy Screening Program Branch, National Institute of Neurological Disorders and Stroke. Phase I evaluation included three tests: maximal electroshock (MES), 6 Hz, and rotarod test for neurological toxicity (Tox). The studies were done in normal adult male Carworth Farms no. 1 (CF1) mice using four or more mice pre-test. Intraperitoneal (ip) administration of the test compounds was carried out as a suspension in 0.5% methylcellulose. The compounds were tested at doses ranging from 30 mg/kg to 300 mg/kg. The animals were pretreated with the test compound at time intervals of 0.5 h and 2 h. The rotarod neurologic toxicity test was completed at each dose and time point. The MES test is a high frequency (60 Hz), short duration ([…]) stimulus delivered through corneal electrodes in normal rodents while the 6 Hz 44 mA psychomotor test is a long duration (3 s) and low frequency (6 Hz). Compounds active in the MES Identification Phase tests are screened for their ability to block seizures induced in the 6 Hz psychomotor focal seizures animal model of epilepsy. The compounds effective in the 6-Hz model during the Identification phase become candidates for advanced screening in the Differentiation Phase.

[1] = system: maximal electroshock (MES) model; test: maximal electroshock (MES) test (ETSP anticonvulsant screening); assay type: in vivo, Carworth Farms no. 1 (CF1) mice; conditions: ip, mice; for animals protected in MES model: 300 mg/kg
Procedure: as §1

O=C1C=C(NC(=O)c2ccc(C(F)(F)F)cc2)CC(C(F)(F)F)C1 (stereo not shown) [Compound 7, N-(3-oxo-5-(trifluoromethyl)cyclohex-1-en-1-yl)-4 (trifluoro-methyl)-benzamide]
25%: protection in 6 Hz 44 mA model (6 Hz 44 mA animal model) | protection in MES model ([1]; 100 mg/kg, after 2 h) | animals protected in MES model ([1]; 0.5 h) | animals protected in MES model ([1]; 2 h)
